Laboratory results published in US20240226094A1, “ALPHA PROTEIN KINASE 1 INHIBITORS FOR USE IN TREATING KAWASAKI DISEASE” (Shanghai Yao Yuan Biotechnology Co., Ltd., priority 2021, published 2024).
Where a name gives a salt, the structure may show the parent alone. Read-outs that look alike come from different tables or passages of the source.

Assays:
ALPK1 = ALPK1 (Homo sapiens (Human), UniProt Q96QP1); assay: ALPK1 in vitro kinase assay (HTRF of TIFA phosphorylation); type: biochemical
Experimental: ALPK1 kinase activity was measured in an in vitro assay using ADP-Heptose as the ALPK1 ligand and activator of its kinase activity and TIFA protein as the ALPK1 phosphorylation substrate. Since phosphorylated TIFA proteins oligomerize, Homogeneous Time-Resolved Fluorescence (HTRF) was used to measure protein:protein interaction between HA-tagged TIFA proteins as an indicator of TIFA phosphorylation.
In brief, dose-response studies were performed with HEK293 cells cultured in Dulbecco's Modified Eagle Medium (DMEM) supplemented 10% fetal bovine serum (FBS, Hyclone™) containing antibiotics (pen/strep, G418) in 384-well assay plates. Each well contained 0.1 mg TIFA, ALPK1 (2 nM final concentration in reaction mixture) and kinase buffer (100 mM of HEPES pH 7.4, 4 mM DTT, 40 mM MgCl2, 20 mM of β-Glycerol phosphate disodium salt, 0.4 mM of Na3VO4, 0.16 mg/mL). Titrations of the test compounds were prepared in dimethylsulphoxide (DMSO). The reaction was initiated by addition of ATP and ADP-Heptose.
For HTRF, samples were incubated with a Tb cryptate-labeled anti-HA antibody for capturing HA-tagged proteins according to the manufacturer's instructions (PerkinElmer™, CisBio™) and the fluorescence signal was quantified (Tecan Infinite F NANO+). HTRF signals were calculated as the HTRF ratio (ratio of fluorescence measured at 665 nm and 620 nm)×104 (thereby using the signal at 620 nm as an internal standard).
IC50 values were determined using 3- or 4-parameter logistic equation using GraphPad Prism version 6.00. The reference compound, A027, was used as a positive control for each plate.

[1] = system: ALPK1-dependent innate immunity gene expression in PBMC; assay: Inhibition of ALPK1 in PBMC cells (innate immunity gene mRNA, RT-PCR); type: in vivo, Sprague-Dawley (SD) rats; conditions: SD rats, 10 mpk oral, 2 h before ip ALPK1 agonist, blood 3 h later, compared with vehicle group
Experimental: We examined whether ALPK1 inhibitors can suppress ALPK1-dependent activation of a set of such genes in rats. […] PBMCs were collected and gene expression analyzed, as described in more detail below.
After 3 hours administration of the ALPK1 agonist, the blood was collected from heart, and PBMC were extracted from each group.

[2] = system: ALPK1-TIFA-IL1β pathway in THP-1-derived macrophage cells; assay: PMA-differentiated THP-1 cell based assay (IL1β mRNA after ALPK1 agonist); conditions: Homo sapiens; PMA-differentiated THP-1 cells, 2 h pretreatment, 4 h ALPK1 agonist; read-out: IC50 of IL1β mRNA induced by ALPK1 activation
Experimental: Peripheral blood mononuclear cells (PBMCs) from Kawasaki patients show activation of ALPK1-TIFA-IL1β pathway. […] THP-1 cells were cultured in RPMI 1640 containing 10% heat inactivated FBS, penicillin (100 units/ml) and streptomycin ([…]), and maintained in a humidified incubator with 95% atmospheric air and 5% CO2. Prior to the experiment, THP-1 cells were seeded into 24-well flat-bottom plate at a cell density of […]. Phorbol myristate acetate (PMA; 50 ng/mil) was used to treat THP-i cells for 48 h, and then THP-1-derived macrophages were obtained. […] Total RNA was extracted using the TRIzol method and reverse-transcribed. The mRNA expression levels IL1β were detected by SYBR green gene expression assays. Expression levels of mRNA were normalized to GAPDH. Relative expression was calculated by comparing to vehicle control and the values were plotted as fold induction. All activity results were expressed as the mean of triplicate determinations.

[3] = system: ALPK1-dependent NFκB reporter gene activation; assay: NFκB gene reporter alkaline phosphatase assay in HEK293 G9 cells; type: cell-based, human; conditions: read-out: NFkB assay IC50
Experimental: An alkaline phosphatase reporter assay system was used to measure inhibition of ALPK1-dependent NFκB reporter gene activation. Briefly, HEK293 cells stably expressing an NF-kB reporter (referred to herein as “G9 cells”) were maintained in DMEM as described above. For the assay, cells were seeded into 96-well plates at a density of 10,000 cells/well in Freestyle-M 293 Expression Medium (ThermoFisher), and allowed to attach overnight. […] NFkB gene activation was detected using the chromogenic substrate, para-nitrophenyl phosphate (pNPP) according to the manufacturer's protocols (pNPP Phosphatase Assay, Beyotine Biotechnology).

[4] = system: ALPK1-dependent innate immunity gene expression; assay: Inhibition of ALPK1 in coronary artery, aorta and heart muscle (innate immunity gene mRNA, RT-PCR); type: in vivo, Sprague-Dawley (SD) rats; conditions: SD rats, 40 mpk oral, 2 h before ip ALPK1 agonist, tissue 3 h later, compared with vehicle group
[5] = ADP-Heptose activated ALPK1, TIFA substrate, HTRF

ALPK1, sequence (Q96QP1 whole entry): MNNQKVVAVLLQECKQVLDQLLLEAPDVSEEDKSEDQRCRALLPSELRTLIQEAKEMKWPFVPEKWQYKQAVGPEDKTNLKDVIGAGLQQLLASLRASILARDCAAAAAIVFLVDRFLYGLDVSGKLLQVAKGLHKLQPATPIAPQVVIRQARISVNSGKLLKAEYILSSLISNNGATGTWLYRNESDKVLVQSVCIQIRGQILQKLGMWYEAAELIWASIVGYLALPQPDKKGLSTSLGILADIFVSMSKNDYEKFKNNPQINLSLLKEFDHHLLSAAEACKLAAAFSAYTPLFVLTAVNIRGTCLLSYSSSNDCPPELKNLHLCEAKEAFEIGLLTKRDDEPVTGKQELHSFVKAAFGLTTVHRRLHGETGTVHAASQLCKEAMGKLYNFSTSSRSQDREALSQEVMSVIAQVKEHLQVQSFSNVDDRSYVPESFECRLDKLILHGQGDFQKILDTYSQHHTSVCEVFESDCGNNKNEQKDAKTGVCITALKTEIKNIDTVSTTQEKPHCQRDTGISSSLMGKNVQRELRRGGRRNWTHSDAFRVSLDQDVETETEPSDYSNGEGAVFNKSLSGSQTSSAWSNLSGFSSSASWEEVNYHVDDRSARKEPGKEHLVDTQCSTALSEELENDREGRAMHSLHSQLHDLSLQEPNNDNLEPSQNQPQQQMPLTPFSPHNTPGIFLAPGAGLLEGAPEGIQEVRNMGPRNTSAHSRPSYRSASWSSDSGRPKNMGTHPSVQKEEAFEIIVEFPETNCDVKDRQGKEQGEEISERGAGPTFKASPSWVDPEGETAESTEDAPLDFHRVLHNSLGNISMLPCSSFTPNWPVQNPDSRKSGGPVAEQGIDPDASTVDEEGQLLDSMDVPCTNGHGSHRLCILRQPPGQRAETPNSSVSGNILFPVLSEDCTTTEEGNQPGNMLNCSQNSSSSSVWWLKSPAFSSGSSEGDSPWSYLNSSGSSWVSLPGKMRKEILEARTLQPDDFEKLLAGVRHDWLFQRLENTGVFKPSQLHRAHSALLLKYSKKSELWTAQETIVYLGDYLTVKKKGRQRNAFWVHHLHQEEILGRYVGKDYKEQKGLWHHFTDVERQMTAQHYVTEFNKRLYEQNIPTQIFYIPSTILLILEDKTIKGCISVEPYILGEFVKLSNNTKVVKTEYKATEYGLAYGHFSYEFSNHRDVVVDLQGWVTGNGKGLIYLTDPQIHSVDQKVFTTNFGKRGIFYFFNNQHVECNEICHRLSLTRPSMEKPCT

## C#C[C@](C)(c1ccc(Cl)cc1)c1csc(NC(=O)c2ccc(N3CCNCC3)cc2)n1 (stereo in doubt) [B092, N-(4-(2-(4-chlorophenyl)but-3-yn-2-yl)thiazol-2-yl)-4-(piperazin-1-yl)benzamide]
ALPK1; [5]
  IC50: 219 nM

## C#C[C@@](C)(c1ccc(Cl)cc1)c1csc(NC(=O)NCCO)n1 [A176, (S)-1-(4-(2-(4-chlorophenyl)but-3-yn-2-yl)thiazol-2-yl)-3-(2-hydroxyethyl)urea]
[1]
  mRNA expressions of PBMC CCL-2, CCL-7, CXCL-1, CXCL-10, CXCL-11 and IL-1β: significantly decreased
[2]
  IC50: 97 nM

## C#CC(C)(c1ccc(Cl)cc1)c1csc(NC(=O)c2ccc(N3CCNCC3)cc2F)n1 (stereo not drawn) [B065, N-(4-(2-(4-chlorophenyl)but-3-yn-2-yl)thiazol-2-yl)-2-fluoro-4-(piperazin-1-yl)benzamide]
ALPK1; [5]
  IC50: 34 nM

## C#CC(C)(c1ccc(OC)cc1)c1csc(NC(=O)NC(C)c2ccc(N3CCNCC3)cc2)n1 (stereo not drawn) [A234, 1-(4-(2-(4-methoxyphenyl)but-3-yn-2-yl)thiazol-2-yl)-3-(1-(4-(piperazin-1-yl)phenyl)ethyl)urea]
ALPK1
  IC50: 36 nM

## C#C[C@@](C)(c1ccc(F)cc1)c1csc(NC(=O)NCCO)n1 (stereo in doubt) [A283, 1-(4-(2-(4-fluorophenyl)but-3-yn-2-yl)thiazol-2-yl)-3-(2-hydroxyethyl)urea]
ALPK1
  IC50: 550 nM

## C#CC(C)(c1ccc(Br)cc1)c1csc(NC(=O)NCCN2CCNCC2)n1 (stereo not drawn) [A239, 1-(4-(2-(4-bromophenyl)but-3-yn-2-yl)thiazol-2-yl)-3-(2-(piperazin-1-yl)ethyl)urea]
ALPK1
  IC50: 20 nM

## C#C[C@@](C)(c1ccc(Cl)cc1)c1csc(NC(=O)N2CC(CO)C2)n1 [A258, (S)-N-(4-(2-(4-chlorophenyl)but-3-yn-2-yl)thiazol-2-yl)-3-(hydroxymethyl)azetidine-1-carboxamide]
ALPK1
  IC50: 57 nM

## COc1ccc(C(C)(CO)c2csc(NC(=O)NC(C)c3ccc(N4CCNCC4)cc3)n2)cc1 (stereo not drawn) [A235, 1-(4-(1-hydroxy-2-(4-methoxyphenyl)propan-2-yl)thiazol-2-yl)-3-(1-(4-(piperazin-1-yl)phenyl)ethyl)urea]
ALPK1
  IC50: 61 nM

## COc1ccc(C(C)(C)c2csc(NC(=O)N3CC(c4ccc(N5CCNCC5)cc4)C3)n2)cc1 [A233, N-(4-(2-(4-methoxyphenyl)propan-2-yl)thiazol-2-yl)-3-(4-(piperazin-1-yl)phenyl)azetidine-1-carboxamide]
[3]; Homo sapiens, HEK293
  IC50: 330 nM

## COc1ccc(C(C)(C)c2csc(NC(=O)NCc3ccc(N4CCC(N)C4)nc3)n2)cc1 (stereo not drawn) [A199, 1-((6-(3-aminopyrrolidin-1-yl)pyridin-3-yl)methyl)-3-(4-(2-(4-methoxyphenyl)propan-2-yl)thiazol-2-yl)urea]
[3]; Homo sapiens, HEK293
  IC50: 460 nM

## COc1ccc(C(C)(C)c2csc(NC(=O)NCc3cc(F)c(C4CCNCC4)c(F)c3)n2)cc1 [A151, 1-(3,5-difluoro-4-(piperidin-4-yl)benzyl)-3-(4-(2-(4-methoxyphenyl)propan-2-yl)thiazol-2-yl)urea hydrochloride]
[3]; Homo sapiens, HEK293
  IC50: 950 nM

## COc1ccc(C(C)(C)c2csc(NC(=O)NCc3cnccn3)n2)cc1 [A007, 1-(4-(2-(4-methoxyphenyl)propan-2-yl)thiazol-2-yl)-3-(pyrazin-2-ylmethyl)urea]
[3]; Homo sapiens, HEK293
  IC50: 5580 nM
ALPK1
  IC50: 91 nM

## CC(C)(c1ccc(Br)cc1)c1csc(NC(=O)NCc2cccc(N3CCNCC3)c2)n1 [A005, 1-(4-(2-(4-bromophenyl)propan-2-yl)thiazol-2-yl)-3-(3-(piperazin-1-yl)benzyl)urea]
[3]; Homo sapiens, HEK293
  IC50: 3150 nM
ALPK1
  IC50: 97 nM

## C#C[C@@](C)(c1ccc(OC)cc1)c1csc(NC(=O)N2CC(CO)C2)n1 [A256, (S)-3-(hydroxymethyl)-N-(4-(2-(4-methoxyphenyl)but-3-yn-2-yl)thiazol-2-yl)azetidine-1-carboxamide]
ALPK1
  IC50: 43 nM

## C#C[C@@](C)(c1ccc(Cl)cc1)c1csc(NC(=O)c2ccc(N3CCNCC3)cc2)n1 (stereo in doubt) [B093, N-(4-(2-(4-chlorophenyl)but-3-yn-2-yl)thiazol-2-yl)-4-(piperazin-1-yl)benzamide]
ALPK1; [5]
  IC50: 43 nM

## C#C[C@](C)(c1ccc(Cl)cc1)c1csc(NC(=O)N2CC(CO)C2)n1 [A257, (R)-N-(4-(2-(4-chlorophenyl)but-3-yn-2-yl)thiazol-2-yl)-3-(hydroxymethyl)azetidine-1-carboxamide]
ALPK1
  IC50: 246 nM

## C#CC(C)(c1ccc(Cl)cc1)c1csc(NC(=O)c2ccc(N3CCNCC3)c(OC)c2)n1 (stereo not drawn) [B066, N-(4-(2-(4-chlorophenyl)but-3-yn-2-yl)thiazol-2-yl)-3-methoxy-4-(piperazin-1-yl)benzamide]
ALPK1; [5]
  IC50: 29 nM

## COc1ccc(C(C)(C)c2csc(NC(=O)NCCCCNc3ccccc3)n2)cc1 [A147, 1-(4-(2-(4-methoxyphenyl)propan-2-yl)thiazol-2-yl)-3-(4-(phenylamino)butyl)urea]
ALPK1
  IC50: 235 nM

## C#C[C@@](C)(c1ccc(Cl)cc1)c1csc(NC(=O)c2c(F)cc(N3CCNCC3)cc2F)n1 [C008, (S)-N-(4-(2-(4-chlorophenyl)but-3-yn-2-yl)thiazol-2-yl)-2,6-difluoro-4-(piperazin-1-yl)benzamide]
[1]
  mRNA expressions of PBMC CCL-7, CXCL-1, CXCL-10, CXCL-11, IL-1β, TNF-α and IL-6: significantly decreased
[2]
  IC50: 15 nM
[4]
  mRNA expression of aorta IL-6, CXCL-1, CXCL-10, CCL-2: significantly decreased
  mRNA expression of cardiac muscle TNF-a, IL-1b, IL-6, CXCL-1, CXCL-10, CXCL-11, CCL-2 and CCL-5: significantly decreased
  mRNA expression of coronary artery TNF-α, CXCL-1, CCL-2 and CCL-7: significantly decreased

## C#C[C@](C)(c1ccc(OC)cc1)c1csc(NC(=O)N2CC(CO)C2)n1 [A255, (R)-3-(hydroxymethyl)-N-(4-(2-(4-methoxyphenyl)but-3-yn-2-yl)thiazol-2-yl)azetidine-1-carboxamide]
ALPK1
  IC50: 109 nM

## C#CC(C)(c1ccc(Cl)cc1)c1csc(NC(=O)N2CCc3cc(N4CCNCC4)ccc3C2)n1 (stereo not drawn) [A281]
[3]
  IC50: 860 nM

## COc1ccc(C(C)(C)c2csc(NC(=O)NCc3cc(F)c(N4CCNCC4)cc3F)n2)cc1 [A231, 1-(2,5-difluoro-4-(piperazin-1-yl)benzyl)-3-(4-(2-(4-methoxyphenyl)propan-2-yl)thiazol-2-yl)urea hydrochloride]
[3]; Homo sapiens, HEK293
  IC50: 3360 nM

## CC(C)(c1ccc(I)cc1)c1csc(NC(=O)NCc2cnc(N3CCNCC3)nc2)n1 [A178, 1-(4-(2-(4-iodophenyl)propan-2-yl)thiazol-2-yl)-3-((2-(piperazin-1-yl)pyrimidin-5-yl)methyl)urea]
ALPK1
  IC50: 42 nM
